In US20230015823A1, “METHODS OF ADMINISTERING VOXELOTOR” (Global Blood Therapeutics, Inc., priority 2019, published 2023):
Like-named read-outs stand apart in the source and are kept apart here.

How the values were obtained:
rat [1] = assay: Rat Comet assay; assay type: in vivo
Excerpt: (§1) Voxelotor was not genotoxic in the reverse mutation bacterial (Ames) test, rat Comet assay, or rat micronucleus assay.

[2] = Clinical pharmacokinetics of voxelotor in plasma, whole blood and RBCs; assay type: in vivo, human; details: for AUC(0-t): read-out: AUC0-24h, Geometric Mean (% CV); for Cmax: read-out: Cmax, Geometric Mean (% CV)
Excerpt: Voxelotor is absorbed into plasma and is then distributed predominantly into RBCs due to its preferential binding to Hb. The major route of elimination of voxelotor is by metabolism with subsequent excretion of metabolites into urine and feces. The PK are linear and voxelotor exposures increased proportionally with either single or multiple doses (Table 3) in whole blood, plasma, and RBCs. Steady-state after repeated administration is reached within 8 days and exposures of voxelotor are consistent with accumulation predicted based on single dose data in patients with SCD.
The median plasma and whole blood Tmax of voxelotor after oral administration is 2 hours. The mean peak concentrations in whole blood and RBCs are observed between 6 and 18 hours after oral administration.
Voxelotor apparent volume of distribution of the central compartment and peripheral compartment are 338 L and 72.2 L in plasma, respectively. Protein binding is 99.8% in vitro. The blood-to-plasma ratio is approximately 15:1 in patients with SCD.

MATE1 = MATE1 (Homo sapiens, UniProt Q96FL8); assay: In vitro transporter studies: MATE1; assay type: in vitro ADME
rat [3] = assay: Rat micronucleus assay; assay type: in vivo
Excerpt: as §1

CYP3A4 = CYP3A4 (Homo sapiens, UniProt P08684); assay: Effect of voxelotor on PK of CYP3A4 probe substrate midazolam in healthy subjects; details: human, in vivo
Protocol: During Period 1, subjects received a single dose of caffeine 100 mg, warfarin sodium 10 mg+vitamin K 10 mg, omeprazole 20 mg, and midazolam hydrochloride 2 mg on Day 1. During Period 2, subjects received voxelotor 900 mg QD on Days 1 and 2 followed by 600 mg QD on Day 3, a single dose of caffeine 100 mg, warfarin sodium 10 mg+vitamin K 10 mg, omeprazole 20 mg, and midazolam hydrochloride 2 mg on Day 4, and voxelotor 600 mg QD on Days 4 through 7.
Whole blood and plasma concentrations of voxelotor and plasma concentrations of caffeine, paraxanthine, S-warfarin, omeprazole, 5-hydroxyomeprazole, midazolam, and 1-hydroxymidazolam were determined using validated assays.

RasH2 transgenic mice = assay: 26-week carcinogenicity study; assay type: in vivo, mouse; details: 26-week study; oral doses of 30, 150, or 500 mg/kg/day
[4] = Phase 1 hepatic impairment study: safety evaluation (TEAEs); assay type: in vivo
Excerpt: This was a Phase 1, multiple-center, nonrandomized, open-label, parallel group study of a single oral dose of voxelotor administered in subjects with mild (Child-Pugh A; score 5 to 6 points), moderate (Child-Pugh B; score 7 to 9 points), or severe (Child-Pugh C; score 10 to 15 points) hepatic impairment and subjects with normal hepatic function. This study was designed to assess the effects of mild, moderate, or severe hepatic impairment on the PK of a single oral dose of voxelotor. Routine safety assessments (AE monitoring, vital signs, physical examinations, clinical laboratory tests, and ECGs) were performed.
Eligible subjects received a single oral dose of voxelotor 1500 mg (5×300-mg capsules) on Day 1 (for normal hepatic function, mild and moderate hepatic impairment). A lower dose of voxelotor 600 mg (2×300-mg capsules) was administered for the subjects with severe hepatic impairment.
Adverse events and concomitant medication use were monitored throughout the study. Safety assessments, including physical examinations, vital signs assessments, 12-lead ECGs, and clinical laboratory tests, were performed. Whole blood and plasma concentrations of voxelotor were determined using validated assays.
All statistical analyses were performed using the safety population. All AEs were coded to SOC and PT using MedDRA (Version 19.0) and presented by subject in data listings. A treatment-emergent AE was defined as an AE that was not present prior to treatment with study drug, but appeared following treatment or was present at treatment initiation but worsened during treatment. An AE that was present at treatment initiation but resolved and then reappeared while the subject was on treatment was a TEAE (regardless of the intensity of the AE when the treatment was initiated). Programmatically, an AE was classified as a TEAE if the start date and time occurred on or after the start date and time of first study drug dosing. The overall incidence of TEAEs (number and percentage of subjects) as well as the number of events were summarized by hepatic function group, severity, SAEs, causally related TEAE and SAEs, TEAEs leading to study or treatment discontinuation, life-threatening SAEs, and SAEs resulting in death.
The TEAEs were summarized and tabulated at both the subject (number [%] of subjects) and event (number of events) level: (1) by hepatic function group, SOC, and PT; (2) by hepatic function group, SOC, PT, and maximum reported severity; and (3) by hepatic function group, SOC, PT, and maximum relationship to study drug.

[5] = human, oral, 1500 mg, plasma, Voxelotor 1,500 mg
[6] = human, oral, 1500 mg, whole blood, Voxelotor 1,500 mg

Chain of MATE1 (Q96FL8 whole entry): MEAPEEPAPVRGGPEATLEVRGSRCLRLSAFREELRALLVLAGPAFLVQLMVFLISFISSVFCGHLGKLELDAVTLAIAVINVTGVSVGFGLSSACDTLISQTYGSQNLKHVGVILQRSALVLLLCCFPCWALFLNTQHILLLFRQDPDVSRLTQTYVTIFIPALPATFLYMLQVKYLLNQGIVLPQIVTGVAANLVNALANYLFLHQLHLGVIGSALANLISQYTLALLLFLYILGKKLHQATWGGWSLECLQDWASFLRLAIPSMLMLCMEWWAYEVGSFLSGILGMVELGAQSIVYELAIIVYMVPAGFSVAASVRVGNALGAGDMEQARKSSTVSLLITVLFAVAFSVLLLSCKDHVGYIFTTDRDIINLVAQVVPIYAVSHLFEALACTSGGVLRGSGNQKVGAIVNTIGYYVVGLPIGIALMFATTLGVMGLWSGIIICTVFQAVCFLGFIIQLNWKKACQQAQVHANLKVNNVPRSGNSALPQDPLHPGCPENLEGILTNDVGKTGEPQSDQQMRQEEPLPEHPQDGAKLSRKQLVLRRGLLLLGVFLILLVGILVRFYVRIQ
Chain of CYP3A4 (P08684 whole entry): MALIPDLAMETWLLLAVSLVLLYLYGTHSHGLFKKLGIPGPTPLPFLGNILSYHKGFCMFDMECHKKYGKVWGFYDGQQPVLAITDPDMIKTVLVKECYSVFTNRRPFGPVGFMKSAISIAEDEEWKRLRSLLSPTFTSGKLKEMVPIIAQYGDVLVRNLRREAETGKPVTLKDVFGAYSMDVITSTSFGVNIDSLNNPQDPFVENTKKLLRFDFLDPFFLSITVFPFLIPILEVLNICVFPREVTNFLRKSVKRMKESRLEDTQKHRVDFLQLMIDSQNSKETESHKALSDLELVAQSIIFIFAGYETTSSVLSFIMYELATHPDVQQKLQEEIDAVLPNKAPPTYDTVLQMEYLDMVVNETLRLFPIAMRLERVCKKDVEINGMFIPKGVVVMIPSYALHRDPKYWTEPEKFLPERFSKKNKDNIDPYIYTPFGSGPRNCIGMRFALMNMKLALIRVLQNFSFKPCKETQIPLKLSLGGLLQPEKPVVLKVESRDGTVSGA

## CC(C)n1nccc1-c1ncccc1COc1cccc(O)c1C=O [voxelotor, 2-hydroxy-6-((2-(1-isopropyl-1H-pyrazol-5-yl)pyridin-3-yl)methoxy)benzaldehyde]
Rat [1]
  genotoxicity: not genotoxic
[2]; [5]
  AUC(0-t): 246 µg·h/mL
  Cmax: 12.6 µg/mL
[2]; [6]
  AUC(0-t): 3820 µg·h/mL
  Cmax: 179 µg/mL
[2]; human, plasma, oral, 1500 mg, patients with SCD, read-out: terminal elimination half-life, geometric mean (converted)
  half-life: 2130 min
[2]; human, plasma, oral, read-out: apparent volume of distribution of the central compartment
  Vd: 338 L
[2]; human, plasma and whole blood, oral administration, read-out: median Tmax
  Tmax: 2 h
[2]; patients with SCD
  time to steady-state after repeated administration: ≤ 8 days
[2]; plasma
  apparent volume of distribution of the peripheral compartment: 72.2 L
[2]; plasma, Voxelotor 1,500 mg
  Half-life, Geometric Mean (% CV): 35.5 (25) hours
[2]; plasma, patients with SCD
  apparent oral clearance: 6.7 L/h
[2]; single or multiple doses, whole blood, plasma and RBCs
  PK linearity: linear
MATE1
  inhibition of MATE1: not an inhibitor
Rat [3]
  genotoxicity: not genotoxic
CYP3A4
  inhibition of CYP3A4 in vivo: inhibits
RasH2 transgenic mice
  carcinogenicity: not carcinogenic
[4]; all hepatic function groups
  deaths, SAEs, AEs leading to discontinuation: No deaths, other serious adverse events (SAEs), and no AEs leading to discontinuation of the study were reported
[4]; mild hepatic impairment, 4 of 7 subjects
  subjects reporting mild TEAEs: 57.1%
[4]; moderate hepatic impairment, 1 of 7 subjects
  subjects reporting a moderate TEAE: 14.3%
[4]; moderate hepatic impairment, 1500 mg, 5 of 7 subjects
  subjects with TEAE of diarrhea (mild): 71.4%
[4]; moderate hepatic impairment, 5 of 7 subjects
  subjects reporting mild TEAEs: 71.4%
[4]; normal hepatic function, 1500 mg
  TEAEs: No TEAEs were reported
[4]; overall, 7 events in 7 subjects
  subjects with diarrhea (most frequently reported TEAE): 25%
[4]; overall, 11 subjects, 17 TEAEs
  subjects reporting TEAEs: 39.3%
[4]; overall, seven subjects, 8 TEAEs
  subjects with TEAEs possibly/probably related to study drug: 25.0%
[4]; severe hepatic impairment, 600 mg, 1 of 7 subjects
  subjects reporting a mild TEAE and a moderate TEAE: 14.3%
[4]; single oral dose 1500 mg (mild, moderate, normal) or 600 mg (severe hepatic impairment)
  safety and tolerability: safe and well tolerated
